What all share (experiment): biochemical
What all share (assay type): binding

In experiment [1] the target is HLA-DR DRB1*0101 (DR1) (Homo sapiens, UniProt P01903+P01911, A100R/D57E/F55L/F60I/F76Y/I96L/L162R/M171V/P40L/Q125E/R42F/V115G/Y59C). The following applies: DRB1 *0101.
Experiment [2] has as its target HLA-DR DRB1*0301 (DR3) (Homo sapiens, UniProt P01903+P01911, A100K/A102G/A103R/A169T/F55Y/I96L/K41T/L162R/M171V/P40S/Q125H/Q178H/Q39Y/R42S/S66N/T106N/T262R/W38E/Y61H).
Experiment [3] has as its target HLA-DR DRB1*0405 (DR4) (Homo sapiens, UniProt P01903+P01911, A100R/A169T/D86S/F76Y/I96L/K127E/L162R/M171V/N62H/P40V/Q125Y/R42H/S133A/S149N/S66Y/V115G/V209L/W38E). The following applies: DRB1 *0405.
The target of experiment [4] is HLA-DR DRB1*0701 (DR7) (Homo sapiens, UniProt P01903+P01911, A100R/A102G/A103Q/D57E/D86V/E43K/F76Y/K127E/L162R/M171V/P40G/Q125H/Q99D/R33Q/R42Y/R54Q/S133A/S66F/T210M/V115G/Y107V/Y59L/Y89S). The following applies: DRB1 *0701.
Experiment [5] addresses HLA-DR DRB1*0802 (DR8) (Homo sapiens, UniProt P01903+P01911, A100R/A103L/A169T/F76Y/H45Y/I96F/K41T/L162R/M171V/P40S/Q125H/Q178H/Q39Y/Q99D/R218S/R42G/S66Y/V115G/W38E).
For experiment [6], the target named is HLA-DR DRB1*0901 (DR9) (Homo sapiens, UniProt P01903+P01911, A100R/A103E/D57H/D86V/F55Y/F60I/F76Y/I96F/K127E/L162R/M171V/P40D/Q125H/Q99R/R33Q/R42F/S133A/S66N/T210M/V115G/W38K/Y107V/Y59G/Y89S). The following applies: DRB1 *0901.
The target in experiment [7] is HLA-DR DRB1*1101 (DR11) (Homo sapiens, UniProt P01903+P01911, A100R/A169T/A87E/I96F/K41T/L162R/M171V/P40S/Q125H/Q178H/Q39Y/Q99D/R42S/S66Y/T262R/V115G/W38E). The following applies: DRB1 *1101.
The target in experiment [8] is HLA-DR DRB1*1302 (DR13) (Homo sapiens, UniProt P01903+P01911, A100E/A169T/K41T/L162R/M171V/P40S/Q125H/Q178H/Q39Y/Q99D/R42S/S66N/T262R/V115G/W38E/Y61H). The following applies: DRBI *1302.
In experiment [9] the target is HLA-DR DRB1*1501 (DR15) (Homo sapiens, UniProt P01903+P01911). The following applies: DRBI *1501.
Experiment [10] addresses HLA-DR DRB3*0101 (DR52) (Homo sapiens, UniProt P01903+P79483).
The target of experiment [11] is HLA-DR DRB5*0101 (DR51) (Homo sapiens, UniProt P01903+Q30154). The following applies: DRB5 *0101.
Experiment [12] addresses HLA-DR DRB4*0101 (DR53) (Homo sapiens, UniProt P01903+P13762, G164S). The following applies: DRB4 *0101.
Experiment [13] addresses HLA-DR DRB1*0401 (DR4) (Homo sapiens, UniProt P01903+P01911, A100K/A169T/F76Y/I96L/K127E/L162R/M171V/N62H/P40V/Q125Y/R42H/S133A/S149N/S66Y/V115G/V209L/W38E). The following applies: DRB1 *0401.

The results in this text go back to US20060079453A1, “Hla binding peptides and their uses” (priority 2002, published 2006).

No end group written: not given here. A value given as a limit tells only on which side of the number the result lay.

Sequence of HLA-DR DRB1*0301 (DR3) (P01903 26-254 limits assumed, other chains not shown): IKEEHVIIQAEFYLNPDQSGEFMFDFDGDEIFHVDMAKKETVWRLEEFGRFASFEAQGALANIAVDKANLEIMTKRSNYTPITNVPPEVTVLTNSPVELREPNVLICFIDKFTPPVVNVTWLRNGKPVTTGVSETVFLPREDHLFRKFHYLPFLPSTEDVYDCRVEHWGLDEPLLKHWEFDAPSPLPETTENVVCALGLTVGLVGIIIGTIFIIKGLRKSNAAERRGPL
Sequence of HLA-DR DRB1*1101 (DR11) (P01903 26-254 limits assumed, other chains not shown): as above
Sequence of HLA-DR DRB1*1302 (DR13) (P01903 26-254 limits assumed, other chains not shown): as above

What is called IC50 is the point on the concentration scale where inhibition reaches its midpoint. A low value points to inhibition by little substance. Regarding VEALYLVCGERGSFY, the IC50 is 0.088 µM in experiment [1]; 9.97 µM in experiment [2]; 6.11 µM in experiment [3]; 6.49 µM in experiment [4]; greater than 54.4 µM in [5]; 6.31 µM in experiment [6]. For the same sequence, the IC50 in experiment [7] is greater than 10.5 µM; in [8], 4.29 µM; in [9], 1.24 µM; in [10], greater than 95.2 µM; in [11] it was 0.804 µM.

Regarding TTVLGKLSQELHKLQ, the IC50 in [2] is 92.8 µM; in experiment [3] it was greater than 9.81 µM; in experiment [5], 16.2 µM; in experiment [6], 23.8 µM; in experiment [7] it was 3.52 µM; in experiment [8] it was 12.7 µM. Further, the IC50 is 0.525 µM in [9], greater than 263 µM in experiment [10], 0.241 µM in experiment [12] and 10.6 µM in [11].

As to LHKLQTYPRTNTGSG, the IC50 in experiment [1] is 2.12 µM; in [2] it was greater than 205 µM; in [3], greater than 7.4 µM; in experiment [4], 40.2 µM; in experiment [5], 1.62 µM; in [6], greater than 29.2 µM. Further, the IC50 is 6.09 µM in experiment [7]; greater than 12.6 µM in [8]; 0.157 µM in [9]; greater than 263 µM in experiment [10]; 22.9 µM in experiment [12]; 0.04 µM in experiment [11].

On to GSHLVEALYLVTGER, for which the IC50 in experiment [1] is 0.645 µM; in experiment [2], greater than 176 µM; in experiment [13], 15.8 µM; in experiment [3], 14.4 µM; in experiment [4], 0.553 µM; in experiment [5], greater than 54.4 µM. Also, the IC50 in experiment [6] is greater than 63 µM; in experiment [7], greater than 10.5 µM; in [8], 12.2 µM; in experiment [10], 18.2 µM; in experiment [12], 0.225 µM; in [11], 11.4 µM.

Consider QSQKLLWQLNGRLEY, for which the IC50 came out at 0.127 µM in experiment [1]; 33.4 µM in experiment [2]; 0.084 µM in experiment [13]; 0.055 µM in experiment [3]; 0.991 µM in experiment [5]; 5.92 µM in experiment [6]. Moreover, the IC50 in experiment [7] was greater than 60.6 µM; in [8], 0.155 µM; in experiment [9], 0.108 µM; in [10], 5.61 µM; in experiment [11], 0.402 µM.

Turning to KLSQELHKLQTYPRT, the IC50 in experiment [1] came out at 0.019 µM; in [2], 197 µM; in [13], 19.7 µM; in [3] it was 12.2 µM; in [4] it was 85.5 µM; in experiment [5], 28.7 µM. Moreover, the IC50 in [6] was 19.1 µM; in experiment [7], 2.38 µM; in experiment [8] it was greater than 12.6 µM; in experiment [10] it was greater than 263 µM; in experiment [12] it was 0.87 µM; in [11], 0.037 µM.

Regarding EHTSLNENITVPDTK, the IC50 in [1] is 43.9 µM; in experiment [2] it was 33.6 µM; in experiment [3] it was 1.24 µM; in [4], 37.2 µM; in experiment [5], greater than 16.3 µM; in experiment [6] it was greater than 78.9 µM. Further, the IC50 was greater than 408 µM in experiment [7]; 0.013 µM in experiment [8]; 11.1 µM in experiment [9]; greater than 42.2 µM in experiment [10]; greater than 29 µM in [12]; 5.55 µM in [11].

For TSNLSTTVLGKLSQE, the IC50 is 86.8 µM in experiment [2]; 8.02 µM in experiment [13]; 9.28 µM in experiment [3]; 31.3 µM in [4]; 2.06 µM in [5]; 2.47 µM in [6]. Also, the IC50 in [7] is 0.534 µM; in experiment [8], 9.33 µM; in [9], 7.7 µM; in experiment [10] it was greater than 263 µM; in experiment [11], 2.53 µM.

In the case of DMDKVETFLRIVQTR, the IC50 amounted to 1.11 µM in [1]; 11.2 µM in experiment [2]; 2.03 µM in experiment [13]; 0.454 µM in [3]; 0.436 µM in [4]; 0.183 µM in experiment [5]. For the same sequence, the IC50 in experiment [6] is 51.5 µM; in experiment [7] it was 0.206 µM; in experiment [8], 3.38 µM; in [9] it was greater than 86.7 µM; in [10], 13.7 µM; in experiment [12] it was 0.19 µM.

In the case of NSLVYGASDSNIYDL, the IC50 was greater than 51.4 µM in [2]; 0.24 µM in [13]; 1.23 µM in experiment [3]; 0.297 µM in [4]; greater than 33.3 µM in experiment [5]; greater than 59.5 µM in [6]. Moreover, the IC50 is greater than 15.4 µM in experiment [7]; 0.971 µM in experiment [9]; 31.6 µM in experiment [10]; 3.29 µM in [12]; greater than 9.51 µM in experiment [11].

Consider VEALYLVCGERGFFY, for which the IC50 in [1] was determined as 0.076 µM; in experiment [2], 17.6 µM; in experiment [13] it was 0.209 µM; in experiment [3] it was 1.04 µM; in experiment [4], 3.87 µM; in experiment [5] it was 24.6 µM. Also, the IC50 worked out at 2.23 µM in experiment [6]; 3.56 µM in experiment [7]; 4.4 µM in [8]; 4.44 µM in experiment [10]; 0.03 µM in [12]; 25.5 µM in experiment [11].

Regarding RSSNTQTQKLLWQLN, the IC50 was 10.5 µM in [1]; 44.3 µM in experiment [2]; 2.14 µM in [13]; 12.6 µM in experiment [3]; 27.7 µM in experiment [4]; 1.28 µM in [5]. Also, the IC50 in [6] is greater than 77.3 µM; in experiment [7] it was greater than 42.6 µM; in experiment [9], 2.74 µM; in experiment [10], 0.751 µM; in experiment [12], 0.026 µM; in experiment [11], 8.55 µM.

With QHLTGSHLVEALYLV, the IC50 is 0.0093 µM in experiment [1]; 50.3 µM in [2]; greater than 16.1 µM in [13]; 7.42 µM in experiment [3]; 0.038 µM in [4]; greater than 54.4 µM in experiment [5]. The concentration for half-maximal inhibition (IC50) was 42.3 µM in [6]; greater than 10.5 µM in experiment [7]; 6.86 µM in experiment [8]; 0.184 µM in experiment [9]; 4.03 µM in experiment [10]; 23.7 µM in [11].

Turning to FVNQHLCGSHLVEAL [FVNQHLCGSHLVEAL], the IC50 was 0.583 µM in experiment [1]; greater than 187 µM in experiment [2]; 19.2 µM in experiment [13]; greater than 20.7 µM in experiment [3]; 0.679 µM in experiment [4]; greater than 54.4 µM in experiment [5]. Also, the half-maximal inhibitory concentration (IC50) was greater than 63 µM in [6]; greater than 1110 µM in [7]; 10.6 µM in experiment [8]; 1.2 µM in experiment [9]; greater than 95.2 µM in experiment [10]; 47.2 µM in experiment [11].

On to ICLLLIQSWLEPVQF, for which the IC50 in experiment [2] was 50.9 µM; in [13], 11.3 µM; in experiment [3], 0.071 µM; in experiment [4], 0.643 µM; in experiment [5], greater than 33.3 µM; in experiment [6], greater than 59.5 µM. Further, the IC50 in experiment [7] was greater than 15.4 µM; in experiment [8], 0.954 µM; in experiment [9] it was 1.77 µM; in experiment [10], 188 µM; in experiment [12], 0.049 µM; in experiment [11], greater than 9.51 µM.
